PMC8229129, “Local Colonic Administration of a Serine Protease Inhibitor Improves Post-Inflammatory Visceral Hypersensitivity in Rats” (Pharmaceutics, 2021)

Legend:
[1] = Observation of side-effects after administration in pharmacokinetic experiments; assay type: in vivo; details: rats, within 180 min after administration (1 mg/kg i.v. or 5 mg/kg intracolonic)
Procedure: (§1) To evaluate the pharmacokinetic properties of UAMC-00050, it was administered in male Sprague–Dawley rats (200–225 g) either colonically (5 mg/kg, in a volume of 200 µL 5% DMSO solution) or intravenously (1 mg/kg in a volume of 200 µL 5% DMSO solution). Plasma samples were collected after 5, 15, 30, 45, 60, 90, 120, and 180 min via the tail vein and stored at −80 °C until analysis.

matriptase = system: matriptase; design: method as in PMID 29911328; details: in vitro; cited from earlier work
kallikrein 4 = system: kallikrein 4; design: method as in PMID 29911328; details: in vitro; cited from earlier work
neutrophil elastase = system: neutrophil elastase; design: method as in PMID 29911328; details: in vitro; cited from earlier work
uPA = system: uPA; design: method as in PMID 29911328; details: in vitro; cited from earlier work
[2] = Plasma concentrations after intracolonic administration (LC-MS/MS); assay type: in vivo, Sprague–Dawley rats; details: rat; for Plasma concentration: intracolonic 5 mg/kg
Procedure: as §1
Sample preparation and analysis of plasma samples consisted of protein precipitation followed by direct injection in a liquid chromatography–tandem mass spectrometry (LC-MS/MS) instrument. Briefly, 100 µL of plasma was spiked with 20 µL of nordazepam-D5 used as internal standard for quantification (yielding in a final concentration of 485 ng/mL) and afterwards 180 µL of acetonitrile was added to precipitate proteins. Subsequently, the samples were vortexed for 2.5 min at 2000× g and centrifuged for 5 min at 10,000× g. In a next step, 100 µL of the supernatant was transferred to a 0.20 µm centrifugal filter to remove remaining particles. After centrifugation for 5 min at 10,000× g, the remaining filtrate was transferred to an autosampler vial ready to be analyzed with LC-MS/MS. A seven-level point calibration curve with final concentrations ranging between 5 and 1000 ng/mL and a curve weighting factor of 1/x^2 was prepared in blank mouse plasma using different working solution standards of UAMC-00050 and a fixed amount of internal standard. The lower limit of quantification of the method was 5 ng/mL.
A gradient was applied as follows: 0–0.5 min: 5% B; 0.5–10 min 5–100% B; 10–12 min 100% B; and 12–12.1 min 5% B. The total run time was 18 min and the injection volume was set to 5 µL. Detection and quantification of UAMC-00050 were performed with an Agilent 6410 triple quadrupole MS system with an electrospray interface (ESI) operating in positive ionization mode. The following source parameters were applied: gas temperature 350 °C, gas flow 10 L/min, nebulizer 35 psi, and capillary voltage 4000 V. Compound-dependent MS parameters are summarized in Table 1. The most abundant transition of UAMC-00050 was used as quantifier and the other transitions were used for confirmation (qualifiers). For compound confirmation, the following criteria were used: the quantifier/qualifier ratio should fall within ±15% of the ratio observed in calibrators and the relative retention time should fall within 2.5% of the values observed in the calibrators.

[3] = system: chymotrypsin-like activity in colonic tissue; assay: Chymotrypsin-like activity in colonic tissue after intracolonic administration (Suc-Ala-Ala-Pro-Phe-AMC); assay type: in vivo, Sprague–Dawley rats; details: post-colitis rats, 5 mg/kg intracolonic, colon harvested 90 min after administration, median (IQR), n = 12; vehicle 1.54 (1.06), p < 0.05
Procedure: (§2) The serine protease inhibitor UAMC-00050 (0.1–1.0–2.5–5.0 mg/kg, dissolved in a volume of 200 µL) or its vehicle (5% DMSO in H2O) was delivered colonically using a flexible catheter (18 G, length 4.5 cm) under short-lasting isoflurane anesthesia (5.0% induction, 1.5% maintenance). To prevent expulsion of the enema, animals were held in a Trendelenburg position for 90 s. Doses for intracolonic administration were based on the doses known to be effective via an i.p. administration and adapted afterwards based on preliminary results.
(§3) Trypsin-like, chymotrypsin-like, cathepsin G, elastase-like, and kallikrein activities were determined in colon tissue and fecal samples to profile serine protease activity. […]
(§4) Boc-Gln-Ala-Arg-AMC (75 µM) and n-Tosyl-Gly-Pro-Arg-AMC (100 µM) in 50 mM Tris-HCl pH 8.0 containing 120 mM NaCl were used to measure the trypsin-like activity. […] The fluorescence was measured during 20 min at 37 °C on a Tecan Infinite F200 Pro microtiter plate reader. The other activities were assessed in a similar assay, using the substrates mentioned below. Chymotrypsin-like and kallikrein activity were measured with Suc-Ala-Ala-Pro-Phe-AMC (0.45 mM) and H-Pro-Phe-Arg-AMC (0.45 mM), respectively. Elastase-like activity was measured using two assays, one using Suc-Ala-Ala-Pro-Val-AMC as a substrate and the other using Suc-Ala-Ala-Ala-AMC (both 0.45 mM). […]

chymotrypsin = chymotrypsin (Bos taurus, UniProt P00766); assay: Inhibition of chymotrypsin by UAMC-00050 (IC50); assay type: biochemical; details: in vitro
Procedure: Here, the potency of UAMC-00050 to inhibit two other serine proteases, chymotrypsin and pancreatic elastase, with specificity was determined.

[4] = system: elastase-like, cathepsin G and kallikrein activities in colonic tissue; assay: Other specific proteolytic activities in colonic tissue of post-colitis rats after intracolonic administration; assay type: in vivo, Sprague–Dawley rats; details: 5 mg/kg intracolonic, 90 min
Procedure: as §2, §3, §4

[5] = system: trypsin-like activity in colonic tissue; assay: Trypsin-like activity in colonic tissue after intracolonic administration (fluorogenic substrates); assay type: in vivo, Sprague–Dawley rats; details: post-colitis rats, 5 mg/kg intracolonic, colon harvested 90 min after administration, median (IQR), n = 12; vehicle 1.08 (1.19), p < 0.01
Procedure: as §2, §3, §4

Structure (SMILES): CC(=O)Nc1ccc(OP(=O)(Oc2ccc(NC(C)=O)cc2)C(Cc2ccc(N=C(N)N)cc2)NC(=O)OCc2ccccc2)cc1.Cl (stereo not shown) [UAMC-00050]
- Side-effects [1]: No side-effects
- inhibition of matriptase (matriptase): efficiently inhibits
- inhibition of kallikrein 4 (kallikrein 4): efficiently inhibits
- inhibition of neutrophil elastase (neutrophil elastase): did not efficiently inhibit
- inhibition of uPA (uPA): efficiently inhibits
- Plasma concentration after intracolonic administration as share of plasma concentration after intravenous administration ([2]; 5 min after administration, 5 mg/kg intracolonic versus 1 mg/kg intravenous): 5.4%
- Plasma concentration ([2]; 30–180 min after administration, lower limit of quantification 5 ng/mL): below the lower limit of quantification
- Plasma concentration ([2]; 5 min after administration, mean ± SEM, n = 5): 14.1 ± 2.9 ng/mL
- Plasma concentration ([2]; 15 min after administration, mean ± SEM, n = 5): 10.3 ± 1.3 ng/mL
- Chymotrypsin-like activity in colonic tissue [3]: 0.84 (0.57) U/g
- IC50 (chymotrypsin): > 10 µM
- Effect on the other specific proteolytic activities (elastase-like, cathepsin G, kallikrein) in colonic tissue [4]: No effect
- Trypsin-like activity in colonic tissue (Tos-Gly-Pro-Arg-AMC) [5]: 0.23 (0.18) U/g
